Results as given in patent publication US20210045385A1, “PYRIDAZINONE-SUBSTITUTED KETOXIMES AS HERBICIDES” (FMC Corporation, priority 2018, published 2021).

Experiments:
Type in all cases: in vivo
[1] = system: sedge umbrella (small-flower umbrella sedge, Cyperus difformis); experiment: Test D flooded paddy test, visual plant response rating; details: 250 g ai/ha, scale 0 to 100 (0 no effect, 100 complete control), 13 to 15 d
Procedure, shortened: (§1)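 2-leaf plants, flooded 3 cm, cpd into paddy water; greenhouse 13–15 d; visual rating vs controls, 0 = no effect, 100 = complete control; dash = no result.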

[2] = system: duck salad (Heteranthera limosa); experiment: as above; details: 250 g ai/ha, scale 0 to 100 (0 no effect, 100 complete control), 13 to 15 d
Procedure, shortened: as §1

rice (Oryza sativa) = experiment: as above; details: 250 g ai/ha, scale 0 to 100 (0 no effect, 100 complete control), 13 to 15 d
Procedure, shortened: as §1

[3] = system: barnyardgrass (Echinochloa crus-galli); experiment: as above; details: 250 g ai/ha, scale 0 to 100 (0 no effect, 100 complete control), 13 to 15 d
Procedure, shortened: as §1

[4] = system: pigweed (Amaranthus retroflexus); experiment: Test C preemergence, visual plant response rating
Procedure, shortened: (§2)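 Compounds in a non-phytotoxic solvent with surfactant were applied as a directed soil spray preemergence or to 2–10 cm, one- to two-leaf plants postemergence, in loam–sand soil. After about 10 d in a greenhouse, injury was visually rated against untreated controls on a 0–100 scale (100 = complete control).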

kochia (Bassia scoparia) [5] = experiment: Test C preemergence, visual plant response rating
Procedure, shortened: as §2

[6] = system: barnyardgrass (Echinochloa crus-galli); experiment: Test C preemergence, visual plant response rating
Procedure, shortened: as §2

[7] = system: foxtail, giant (giant foxtail, Setaria faberi); experiment: Test C preemergence, visual plant response rating
Procedure, shortened: as §2

[8] = system: Italian ryegrass (Lolium mutiflorum); experiment: Test C preemergence, visual plant response rating
Procedure, shortened: as §2

[9] = system: ragweed (common ragweed, Ambrosia artemisiifolia); experiment: Test C preemergence, visual plant response rating
Procedure, shortened: as §2

[10] = system: pigweed (Amaranthus retroflexus); experiment: Test C postemergence, visual plant response rating
Procedure, shortened: as §2

kochia (Bassia scoparia) [11] = experiment: Test C postemergence, visual plant response rating
Procedure, shortened: as §2

corn (Zea mays) = experiment: Test C postemergence, visual plant response rating
Procedure, shortened: as §2

[12] = system: barnyardgrass (Echinochloa crus-galli); experiment: Test C postemergence, visual plant response rating
Procedure, shortened: as §2

[13] = system: foxtail, giant (giant foxtail, Setaria faberi); experiment: Test C postemergence, visual plant response rating
Procedure, shortened: as §2

[14] = system: Italian ryegrass (Lolium mutiflorum); experiment: Test C postemergence, visual plant response rating
Procedure, shortened: as §2

[15] = system: wheat (Triticum aestivum); experiment: Test C postemergence, visual plant response rating
Procedure, shortened: as §2

[16] = system: ragweed (common ragweed, Ambrosia artemisiifolia); experiment: Test C postemergence, visual plant response rating
Procedure, shortened: as §2

[17] = system: galium (catchweed bedstraw, Galium aparine); experiment: Test C postemergence, visual plant response rating
Procedure, shortened: as §2

[18] = system: blackgrass (Alopecurus myosuroides); experiment: Test C postemergence, visual plant response rating
Procedure, shortened: as §2

[19] = Test C, 31 g ai/ha, 0 is no effect, 100 is complete control
[20] = Test C, postemergence, 125 g ai/ha
[21] = Test C, 125 g ai/ha, 0 is no effect, 100 is complete control

Row | SMILES | Plant response rating, Sedge, Umbrella (Flood) [1] | Plant response rating, Ducksalad (Flood) [2] | Plant response rating, Rice (Flood) (rice (Oryza sativa)) | Plant response rating, Barnyardgrass (Flood) [3] | Pigweed plant response rating (0 to 100 scale) [4, 19] | Kochia plant response rating (0 to 100 scale) (kochia (Bassia scoparia) [5]; [19]) | Barnyardgrass plant response rating (0 to 100 scale) [6, 19] | Foxtail, Giant plant response rating (0 to 100 scale) [7, 19] | Ryegrass, Italian plant response rating (0 to 100 scale) [8, 19] | Ragweed plant response rating (0 to 100 scale) [9, 19] | Pigweed plant response rating (0 to 100 scale) ([10]; Postemergence, 31 g ai/ha) | Pigweed plant response rating (0 to 100 scale) [10, 20] | Kochia plant response rating (0 to 100 scale) (kochia (Bassia scoparia) [11]; Postemergence, 31 g ai/ha) | Kochia plant response rating (0 to 100 scale) (kochia (Bassia scoparia) [11]; [20]) | Corn plant response rating (0 to 100 scale) (corn (Zea mays); Postemergence, 31 g ai/ha) | Corn plant response rating (0 to 100 scale) (corn (Zea mays); [20]) | Barnyardgrass plant response rating (0 to 100 scale) ([12]; Postemergence, 31 g ai/ha) | Barnyardgrass plant response rating (0 to 100 scale) [12, 20] | Foxtail, Giant plant response rating (0 to 100 scale) ([13]; Postemergence, 31 g ai/ha) | Foxtail, Giant plant response rating (0 to 100 scale) [13, 20] | also measured
1 | CON=C(c1ccc(F)c(Br)c1)c1c(O)c(C)nn(C)c1=O [Compound 176] | 0 | 0 | 0 | 0 | 10 | 0 | 0 | 0 | 10 | 10 | 70 | 80 | 20 | 70 | 0 | 0 | 30 | 40 | 10 | 20 | Pigweed plant response rating (0 to 100 scale) ([4]; 125 g ai/ha): 60; Kochia plant response rating (0 to 100 scale) (kochia (Bassia scoparia) [5]; 125 g ai/ha): 0; Barnyardgrass plant response rating (0 to 100 scale) ([6]; 125 g ai/ha): 0; Foxtail, Giant plant response rating (0 to 100 scale) ([7]; 125 g ai/ha): 10; Ryegrass, Italian plant response rating (0 to 100 scale) ([8]; 125 g ai/ha): 20; Ragweed plant response rating (0 to 100 scale) ([9]; 125 g ai/ha): 20; Ryegrass, Italian plant response rating (0 to 100 scale) ([14]; Postemergence, 31 g ai/ha): 60; Ryegrass, Italian plant response rating (0 to 100 scale) [14, 20]: 90; Wheat plant response rating (0 to 100 scale) ([15]; Postemergence, 31 g ai/ha): 0; Wheat plant response rating (0 to 100 scale) [15, 20]: 0; Ragweed plant response rating (0 to 100 scale) ([16]; Postemergence, 31 g ai/ha): 30; Ragweed plant response rating (0 to 100 scale) [16, 20]: 70; Galium plant response rating (0 to 100 scale) ([17]; Postemergence, 31 g ai/ha): 60; Galium plant response rating (0 to 100 scale) [17, 20]: 90; Blackgrass plant response rating (0 to 100 scale) ([18]; Postemergence, 31 g ai/ha): 0; Blackgrass plant response rating (0 to 100 scale) [18, 20]: 30
2 | Cc1nn(C)c(=O)c(C(=NOC(C)C)c2cc(Cl)cc(Cl)c2Cl)c1O [Compound 295] | 70 | 65 | 60 | 60 | 80 | 0 | 0 | 100 | 80 | 90 | 60 | 90 | 0 | 50 | 0 | 30 | 50 | 70 | 70 | 90 | Pigweed plant response rating (0 to 100 scale) [4, 21]: 100; Kochia plant response rating (0 to 100 scale) (kochia (Bassia scoparia) [5]; [21]): 70; Barnyardgrass plant response rating (0 to 100 scale) [6, 21]: 0; Foxtail, Giant plant response rating (0 to 100 scale) [7, 21]: 100; Ryegrass, Italian plant response rating (0 to 100 scale) [8, 21]: 100; Ragweed plant response rating (0 to 100 scale) [9, 21]: 100; Ryegrass, Italian plant response rating (0 to 100 scale) ([14]; Postemergence, 31 g ai/ha): 100; Ryegrass, Italian plant response rating (0 to 100 scale) [14, 20]: 100; Wheat plant response rating (0 to 100 scale) ([15]; Postemergence, 31 g ai/ha): 30; Wheat plant response rating (0 to 100 scale) [15, 20]: 100; Ragweed plant response rating (0 to 100 scale) ([16]; Postemergence, 31 g ai/ha): 100; Ragweed plant response rating (0 to 100 scale) [16, 20]: 100; Galium plant response rating (0 to 100 scale) ([17]; Postemergence, 31 g ai/ha): 100; Galium plant response rating (0 to 100 scale) [17, 20]: 100; Blackgrass plant response rating (0 to 100 scale) ([18]; Postemergence, 31 g ai/ha): 0; Blackgrass plant response rating (0 to 100 scale) [18, 20]: 0
3 | C#CCON=C(c1cccc(OCC)c1)c1c(O)c(C)nn(C)c1=O [Compound 199] | 0 | 0 | 0 | 0 | 0 | 0 | 0 | 0 | 0 | 0 | 0 | 0 | 0 | 0 | 0 | 0 | 0 | 20 | 0 | 20 | Pigweed plant response rating (0 to 100 scale) [4, 21]: 10; Kochia plant response rating (0 to 100 scale) (kochia (Bassia scoparia) [5]; [21]): 0; Barnyardgrass plant response rating (0 to 100 scale) [6, 21]: 0; Foxtail, Giant plant response rating (0 to 100 scale) [7, 21]: 10; Ryegrass, Italian plant response rating (0 to 100 scale) [8, 21]: 20; Ragweed plant response rating (0 to 100 scale) [9, 21]: 0; Ryegrass, Italian plant response rating (0 to 100 scale) ([14]; Postemergence, 31 g ai/ha): 0; Ryegrass, Italian plant response rating (0 to 100 scale) [14, 20]: 0; Wheat plant response rating (0 to 100 scale) ([15]; Postemergence, 31 g ai/ha): 0; Wheat plant response rating (0 to 100 scale) [15, 20]: 0; Ragweed plant response rating (0 to 100 scale) ([16]; Postemergence, 31 g ai/ha): 0; Ragweed plant response rating (0 to 100 scale) [16, 20]: 0; Galium plant response rating (0 to 100 scale) ([17]; Postemergence, 31 g ai/ha): 20; Galium plant response rating (0 to 100 scale) [17, 20]: 30; Blackgrass plant response rating (0 to 100 scale) ([18]; Postemergence, 31 g ai/ha): 0; Blackgrass plant response rating (0 to 100 scale) [18, 20]: 20
